Data: BigSolDB 2.1

O=C(O)c1ccc(CO)cc1
solubility (mole fraction)
Details	in ethanol	in ethyl acetate	in ethyl formate	in isopropanol	in isopropyl acetate	in methanol	in n-butyl acetate	in n-propanol	in water
283.15 K	0.0289	0.00475	0.00168	0.0268	0.00324	0.0282	0.00341	0.0236	0.000244
288.15 K	0.0325	0.00528	0.00259	0.0294	0.00444	0.0323	0.00463	0.026	0.000254
293.15 K	0.0367	0.00653	0.00319	0.0337	0.00481	0.0361	0.00508	0.0298	0.0003
298.15 K	0.0414	0.00797	0.00396	0.0391	0.00599	0.0414	0.00622	0.0345	0.00039
303.15 K	0.0468	0.00919	0.00431	0.044	0.00827	0.0473	0.00854	0.0367	0.000532
308.15 K	0.0529	0.0109	0.00535	0.0523	0.00969	0.0535	0.01	0.0446	0.000641
313.15 K	0.0599	0.0133	0.00704	0.0602	0.0113	0.0608	0.0117	0.0516	0.000816
318.15 K	0.0678	0.0161	0.00773	0.0697	0.0127	0.0682	0.0132	0.0591	0.000993
323.15 K	0.0768	0.0199	0.00889	0.0826	0.0155	0.078	0.0158	0.0705	0.00128
